Data set [1] relates to Huh-7. In words: Induction of autophagic flux in human Huh-7 cells harbouring mCherry-egfp-LC3 assessed as increase in yellow puncta ratio at 10 nM by fluorescence imaging based assay. In kind it is functional, cell-based.
Data set [2] relates to Huh-7. The data set can be described thus: Induction of apoptosis in human Huh-7 cells assessed as early apoptotic cells at 10 nM incubated for 48 hrs in presence of gamabufotalin by Annexin V-FITC/PI staining based flow cytometry method (reference value: 2.8%). The data set is classed as functional.
Data set [3] has as its system Huh-7. In words: Induction of autophagy in human Huh-7 cells assessed as rescue of ULK1 phosphorylation level at upto 10 nM incubated for 48 hrs in presence of gamabufotalin by immunoblot method. In kind it is functional, cell-based.
The test system of data set [4] is Hep 3B2. In words: Induction of apoptosis in human Hep3B cells assessed as early apoptotic cells at 10 nM incubated for 48 hrs in presence of gamabufotalin by Annexin V-FITC/PI staining based flow cytometry method (reference value: 1.3%). The data set is classed as functional.
In data set [5] the test system is Huh-7. The data set can be described thus: Induction of apoptosis in human Huh-7 cells assessed as early apoptotic cells at 10 nM incubated for 48 hrs by Annexin V-FITC/PI staining based flow cytometry method (reference value: 2.8%). In kind it is functional.
The nature of data set [6]: Toxicity in mouse assessed as effect on spleen at 5 mg/kg,ip administered every second day for 3 weeks by H and E staining based microscopic method. The data set is classed as organism-based. The following applies: in vivo, 504 h.
In data set [7] the test system is Hep 3B2. The data set can be described thus: Antitumor activity against human Hep3B cells xenografted in nude mouse model assessed as upregulation of LC3I expression at 5 mg/kg,ip administered every second day for 3 weeks by Western blot analysis. In kind it is functional, organism-based.
The test system of data set [8] is Hep 3B2. In words: Induction of apoptosis in human Hep3B cells assessed as viable cells at 25 nM incubated for 48 hrs by Annexin V-FITC/PI staining based flow cytometry method (reference value: 94.0%). The following applies: read-out: Activity. In kind it is functional.
Data set [9] concerns Huh-7. In words: Induction of apoptosis in human Huh-7 cells assessed as necrotic cells at 20 nM incubated for 48 hrs by Annexin V-FITC/PI staining based flow cytometry method (reference value: 95.4%). The data set is classed as functional.
Data set [10] has as its system Huh-7. In words: Induction of apoptosis in human Huh-7 cells assessed as increase in cleaved PARP level at 25 nM incubated for 48 hrs in presence of chloroquine by immunoblot analysis. In kind it is functional, cell-based.
In data set [11] the test system is Hep 3B2. In words: Induction of autophagic flux in human Hep3B cells harbouring mCherry-egfp-LC3 assessed as increase in red puncta at 25 nM incubated for 15 mins by laser scanning confocal microscopic analysis. The data set is classed as functional, cell-based.
Data set [12] has as its system Hep 3B2. The data set can be described thus: Induction of apoptosis in human Hep3B cells assessed as […] expression at upto 25 nM incubated for 48 hrs by Western blot analysis. In kind it is functional, cell-based.
Data set [13] has as its system Huh-7. In words: Induction of apoptosis in human Huh-7 cells assessed as fragmented nuclei at upto […] incubated for 48 hrs by Hoechst33258 staining based fluorescence microscopy. In kind it is functional, cell-based.
The nature of data set [14]: Toxicity in mouse assessed as effect on serum CERA level at 5 mg/kg,ip administered every second day for 3 weeks by H and E staining based microscopic method. The data set is classed as organism-based. As to conditions: in vivo, 504 h.
The subject of data set [15] is Huh-7. In words: Induction of autophagic flux in human Huh-7 cells assessed as rescue of LC3-I accumulation at 25 uM incubated for 48 hrs in presence of chloroquine by Western blot analysis. The data set is classed as functional, cell-based.
The subject of data set [16] is Hep 3B2. In words: Induction of apoptosis in human Hep3B cells assessed as increase in cleaved PARP level at 25 nM incubated for 48 hrs in presence of chloroquine by immunoblot analysis. In kind it is functional, cell-based.
Data set [17] concerns Hep 3B2. In words: Induction of apoptosis in human Hep3B cells assessed as viable cells at 25 nM incubated for 48 hrs in presence of chloroquine by Annexin V-FITC/PI staining based flow cytometry method (reference value: 94.0%). The data set is classed as functional. As to conditions: read-out: Activity.
The test system of data set [18] is Hep 3B2. In words: Induction of apoptosis in human Hep3B cells assessed as necrotic cells at 25 nM incubated for 48 hrs in presence of chloroquine by Annexin V-FITC/PI staining based flow cytometry method (reference value: 1.2%). The data set is classed as functional.
In data set [19] the test system is Huh-7. In words: Induction of autophagy in human Huh-7 cells assessed as reduction in mTOR phosphorylation level incubated for 48 hrs by immunoblot method. The data set is classed as functional, cell-based. The following applies: dose 0-25 nM.
Data set [20] deals with Huh-7. In words: Induction of apoptosis in human Huh-7 cells assessed as necrotic cells at 25 nM measured after 48 hrs in presence of z-VAD-FMK by annexin V-FITC/Propidium iodide staining based flow cytometric analysis (reference value: 0.0%). In kind it is functional.
The test system of data set [21] is Hep 3B2. The data set can be described thus: Induction of autophagy in human Hep3B cells assessed as rescue of ULK1 phosphorylation level at upto 25 nM incubated for 48 hrs in presence of chloroquine by immunoblot method. The data set is classed as functional, cell-based.
In data set [22] the test system is Huh-7. The data set can be described thus: Induction of apoptosis in human Huh-7 cells assessed as increase in cleaved bax level at 25 nM incubated for 48 hrs in presence of chloroquine by immunoblot analysis. The data set is classed as functional, cell-based.
The subject of data set [23] is Hep 3B2. The data set can be described thus: Induction of apoptosis in human Hep3B cells assessed as increase in caspase-3 expression at upto 25 nM incubated for 48 hrs by Western blot analysis. In kind it is functional, cell-based.
The test system of data set [24] is Huh-7. The data set can be described thus: Induction of autophagic flux in human Huh-7 cells harbouring mCherry-egfp-LC3 assessed as increase in red puncta at 25 nM incubated for 15 mins by laser scanning confocal microscopic analysis. The data set is classed as functional, cell-based.
The subject of data set [25] is Hep 3B2. The data set can be described thus: Antitumor activity against human Hep3B cells xenografted in nude mouse model assessed as upregulation of caspase-3 expression at 5 mg/kg,ip administered every second day for 3 weeks by Western blot analysis. In kind it is functional, organism-based.
Data set [26] concerns Huh-7. The data set can be described thus: Induction of autophagy in human Huh-7 cells assessed as restoration of ULK1 phosphorylation expression at 25 uM incubated for 48 hrs in presence of 4,6-dimorpholino-N-(4-nitrophenyl)-1,3,5-triazin-2-amine by immunoblot analysis. The data set is classed as functional, cell-based.
For data set [27], the system named is Huh-7. In words: Induction of apoptosis in human Huh-7 cells assessed as necrotic cells at 15 nM incubated for 48 hrs by Annexin V-FITC/PI staining based flow cytometry method (reference value: 0.7%). The data set is classed as functional.
Data set [28] concerns Hep 3B2. In words: Induction of autophagic flux in human Hep3B cells harbouring mCherry-egfp-LC3 assessed as reduction in number of red puncta ratio at 25 nM incubated for 15 mins in presence of chloroquine by laser scanning confocal microscopic analysis. The data set is classed as functional, cell-based.
In data set [29] the test system is Huh-7. The data set can be described thus: Induction of apoptosis in human Huh-7 cells assessed as early apoptotic cells at 25 nM measured after 48 hrs in presence of z-VAD-FMK by annexin V-FITC/Propidium iodide staining based flow cytometric analysis (reference value: 2.2%). In kind it is functional.
Data set [30] relates to Hep 3B2. The data set can be described thus: Antitumor activity against human Hep3B cells xenografted in nude mouse model assessed as reduction in Ki-67 index at 5 mg/kg,ip administered every second day for 3 weeks by immunohistochemical analysis. In kind it is functional, organism-based.
Data set [31] concerns Hep 3B2. In words: Induction of apoptosis in human Hep3B cells assessed as necrotic cells at 25 nM incubated for 48 hrs by Annexin V-FITC/PI staining based flow cytometry method (reference value: 1.2%). The data set is classed as functional.
The subject of data set [32] is Hep 3B2. The data set can be described thus: Induction of autophagy in human Hep3B cells assessed as rescue of mTOR phosphorylation level at upto 25 nM incubated for 48 hrs in presence of chloroquine by immunoblot method. In kind it is functional, cell-based.
In data set [33] the test system is Huh-7. In words: Induction of apoptosis in human Huh-7 cells assessed as necrotic cells at 25 nM incubated for 48 hrs by Annexin V-FITC/PI staining based flow cytometry method (reference value: 1.0%). The data set is classed as functional.

The source made the active and inactive calls. No cut-off for these calls is given here.

Turning to `CCN(CC)CCCC(C)Nc1ccnc2cc(Cl)ccc12` (stereo not drawn) [CHLOROQUINE], the result with Huh-7 [1] and with Huh-7 [3] was Active. Also, the Activity was 12.1% with Huh-7 [2], 17.9% in the data set on Hep 3B2 [4] and 2.9% in the data set on Huh-7 [5].

On to `C[C@]12CC[C@H](O)C[C@H]1CC[C@@H]1[C@@H]2[C@H](O)C[C@]2(C)[C@@H](c3ccc(=O)oc3)CC[C@]12O` [GAMABUFOTALIN], for which the Activity entry in data set [6] is “Non-Toxic”; with Huh-7 [9], 60.8%; in [14], “Non-Toxic”; with Hep 3B2 [18] it was 0.8%; with Huh-7 [19], “Dose-Dependent Effect”; in the data set with Huh-7 [20], 0.3%. Moreover, the Activity in the data set on Huh-7 [27] is on record as 4%; with Huh-7 [29], 3.3%; in the data set on Hep 3B2 [31] it was 0.6%; with Huh-7 [33], 1.1%. For the same compound, the outcome in the data set on Hep 3B2 [7], in the data set with Huh-7 [10], in the data set with Hep 3B2 [11], in the data set with Hep 3B2 [12], in the data set on Huh-7 [13] and in the data set on Huh-7 [15] was Active. The outcome in the data set on Hep 3B2 [16], in the data set with Hep 3B2 [21], in the data set with Huh-7 [22], in the data set with Hep 3B2 [23], in the data set with Huh-7 [24] and in the data set with Hep 3B2 [25] was Active. The result with Huh-7 [26], in the data set with Hep 3B2 [28], with Hep 3B2 [30] and with Hep 3B2 [32] was Active. The viability at 0.025 µM in the data set on Hep 3B2 [8] amounted to 71.4%; in the data set on Hep 3B2 [17], 63.9%.

The values are drawn from ChEMBL document CHEMBL5257089, “Gamabufotalin Induces Apoptosis and Cytoprotective Autophagy through the mTOR Signaling Pathway in Hepatocellular Carcinoma” (J Nat Prod, 2023).
